Reference: publication PMC9230573 (Frontiers in Pharmacology, 2022)
Where “and” joins values, the source holds several entries; their conditions need not be identical. Equal values may be shown once. Entries after “also recorded” stand apart in the source; their conditions may differ. Where a SMILES comes first, the peptide text is derived from it. Bridges are numbered along the chain shown (N, C = ends).

What was measured:
[1] = tested on: voltage-gated sodium channels in DRG neurons; type: cell-based, rat
[2] = tested on: T-type (Cav3.2) calcium channels; type: cell-based
rat α3β2 nAChR = rat α3β2 nAChR (Rattus norvegicus, UniProt P04757+P12390); assay: cell-based
[3] = tested on: voltage-gated potassium channels in DRG neurons; type: cell-based, rat
[4] = tested on: L-type (Cav1.2) calcium channels; type: cell-based
[5] = tested on: GABABR-coupled Cav2.2 channels (human GABAB receptor R1 + R2 subunits and Cav2.2); type: cell-based; details: SEM
rat CCI pain model = details: in vivo
rat PNL pain model = details: in vivo
locomotor activity = details: rat, in vivo

Sequence of rat α3β2 nAChR (P04757 26-499 limits assumed): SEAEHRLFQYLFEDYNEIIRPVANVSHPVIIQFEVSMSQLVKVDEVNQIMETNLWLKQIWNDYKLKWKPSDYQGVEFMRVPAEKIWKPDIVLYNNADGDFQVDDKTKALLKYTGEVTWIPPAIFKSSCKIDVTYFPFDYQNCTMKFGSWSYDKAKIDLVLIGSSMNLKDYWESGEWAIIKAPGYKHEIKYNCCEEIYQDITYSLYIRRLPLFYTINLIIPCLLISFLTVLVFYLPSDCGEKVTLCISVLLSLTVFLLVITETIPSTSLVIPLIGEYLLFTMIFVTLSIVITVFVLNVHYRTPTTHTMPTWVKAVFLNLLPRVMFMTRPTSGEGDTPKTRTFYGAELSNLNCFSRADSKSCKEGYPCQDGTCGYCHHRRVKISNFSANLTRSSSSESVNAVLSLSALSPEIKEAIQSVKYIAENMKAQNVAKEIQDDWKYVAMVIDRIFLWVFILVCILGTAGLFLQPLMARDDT
Sequence of rat α3β2 nAChR (P12390 25-500 limits assumed): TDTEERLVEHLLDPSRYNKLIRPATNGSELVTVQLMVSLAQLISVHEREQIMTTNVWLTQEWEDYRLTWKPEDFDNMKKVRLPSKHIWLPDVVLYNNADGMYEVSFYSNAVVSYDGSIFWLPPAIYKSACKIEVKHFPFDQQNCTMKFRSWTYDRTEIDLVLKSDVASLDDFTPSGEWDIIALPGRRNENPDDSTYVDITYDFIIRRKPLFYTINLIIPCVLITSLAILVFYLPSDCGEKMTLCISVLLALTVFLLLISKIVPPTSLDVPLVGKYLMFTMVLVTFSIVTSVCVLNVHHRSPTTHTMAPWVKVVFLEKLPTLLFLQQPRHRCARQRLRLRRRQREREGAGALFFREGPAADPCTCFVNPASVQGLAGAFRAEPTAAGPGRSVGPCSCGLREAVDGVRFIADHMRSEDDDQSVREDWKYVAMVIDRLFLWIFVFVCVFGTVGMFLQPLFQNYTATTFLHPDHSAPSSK

| Compound | inhibition of voltage-gated sodium channels (in words) [1] | inhibition of T-type calcium channels (in words) [2] | Hillslope (rat α3β2 nAChR) | IC50 (rat α3β2 nAChR) | inhibition of voltage-gated potassium channels (in words) [3] | inhibition of L-type calcium channels (in words) [4] | percent inhibition of IBa at GABABR-coupled Cav2.2 channels [5] | increase in pain threshold (rat CCI pain model) | pain threshold elevation percentage (rat CCI pain model) | elevation value of the pain threshold (rat PNL pain model) | pain threshold (rat PNL pain model) | effect on locomotor activity (in words) (locomotor activity) | increased mechanical pressure threshold (elevation value of pain threshold) (rat PNL pain model) |
| --- | --- | --- | --- | --- | --- | --- | --- | --- | --- | --- | --- | --- | --- |
| CC[C@H](C)[C@@H]1NC(=O)[C@@H]2CCCN2C(=O)[C@@H]2CSSC[C@H](NC(=O)[C@@H](N)CC(N)=O)C(=O)N[C@@H](CSSC[C@@H](C(N)=O)NC(=O)[C@H](CC(N)=O)NC(=O)[C@H](Cc3ccccc3)NC(=O)[C@H](CCCNC(=N)N)NC(=O)[C@H](CO)NC(=O)[C@H](Cc3ccc(O)cc3)NC(=O)[C@H](CC(=O)O)NC1=O)C(=O)N[C@@H](CCSC)C(=O)N[C@@H](Cc1ccccc1)C(=O)N[C@@H](Cc1c[nH]cn1)C(=O)N[C@@H]([C@@H](C)O)C(=O)N2 [Vt1.27] (H-NCCMFHTCPIDYSRFNC-NH2; disulfide 2-8, 3-17) | inactive; also recorded: did not significantly inhibit | did not significantly inhibit | -0.484 | 1160 nM | inactive; also recorded: did not significantly inhibit | did not significantly inhibit | 19 ± 2% | 67.2 g and 40.0 g | 56.4 ± 14.9% and 33.3 ± 15.3% | 37.6 g | 126.2 ± 9.16 g and 138.8 ± 23.6 g and 165.0 ± 21.4 g | did not affect locomotor activity | – |
| Vc1.1 [reference compound] | – | – | – | – | – | – | – | – | 44.3 ± 9.1% and 26.1 ± 10.0% | 7.4 g | – | – | 71.2 g |
